According to publication PMC6480966, “Synthesis, In Silico, and In Vitro Evaluation of Anti-Leishmanial Activity of Oxadiazoles and Indolizine Containing Compounds Flagged against Anti-Targets” (Molecules, 2019):
Where two headings read alike, the source gives them in different places.

Assays:
[1] = tested on: Leishmania donovani LV9 axenic amastigotes; assay: In vitro anti-leishmanial testing on axenic amastigotes (resazurin); format: cell-based; conditions: then resazurin 24 h
Protocol: (§1) Leishmania donovani promastigotes (MHOM/ET/67/HU3/LV9) were cultured with 5% CO2 in M199 complete medium containing M199 medium supplemented with 100 μM adenosine, 0.5 mg/L hemin, 40 mM Hepes pH 7.4 and 10% heat inactivated fetal bovine serum (HIFBS) in the dark at 26 °C. Late log promastigotes diluted at 1 × 10^6/mL in M199 complete medium acidified at pH 5.5 and cultured at 37 °C with 5% CO2 provided the cultures of axenic amastigotes of L. donovani.
Previously described protocols were adapted for evaluation of compounds on L. donovani. For axenic amastigotes, two-fold serial dilutions of the compounds were done in 96-well microplates with 100 μL of complete medium (see above). Axenic amastigotes were then added to each well at a density of […] in a 200 μL final volume. After 72 h of incubation with 5% CO2 at 37 °C, 20 μL of resazurin (450 μM) was added to each well and further incubated with 5% CO2 at 37 °C for 24 h in the dark. Resazurin is reduced to resorufin in living cells and can be then monitored by measuring OD570nm (resorufin) and OD600nm (resazurin; Lab systems Multiskan MS). Compound activity was expressed as IC50 (µM). The drug used for reference was Amphotericin B (AmB).

[2] = tested on: Leishmania donovani LV9 intramacrophage amastigotes; assay: In vitro anti-leishmanial testing on intramacrophage amastigotes (RAW 264.7, Sybr Green I); format: cell-based; conditions: for SI = CC50/IC50 Intramacro. Amas.: CC50 RAW 264.7 / IC50 intramacrophage amastigotes; for IC50: Leishmania donovani, RAW264.7, RAW 264.7 macrophages, 48 h treatment
Protocol: as §1
(§2) RAW 264.7 macrophages were grown with 5% CO2 in DMEM complete medium containing Dulbecco’s Modified Eagle’s Medium (DMEM) with 100 U/mL penicillin-streptomycin, and 10% HIFBS at 37 °C.
For intramacrophage amastigote testing, RAW 264.7 macrophages were incubated with 5% CO2 at 37 °C for 24 h after being plated in 96-well microplates at a density of 2 × 10^4 cells per well. Axenic amastigotes were differentiated as described above, centrifuged at 2000 g for 10 min, re-suspended in DMEM complete medium, and added to each well to reach a 16:1 parasite to macrophage ratio. 24 h of infection with 5% CO2 at 37 °C proceeded, and extracellular parasites were removed. This was followed by addition to each well of DMEM complete medium (100 μL) containing two-fold serial dilutions of the compounds from a maximal concentration of 100 μM. The medium was removed following treatment of 48 h and replaced by Direct PCR Lysis Reagent (100 μL; Euromedex) before 3 freeze-thaw cycles at room temperature, addition of 50 μg/mL proteinase K, and a final incubation at 55 °C overnight to allow cell lysis. 10 μL of each cell extract was then added to 40 μL of Direct PCR Lysis reagent containing Sybr Green I (0.05%; Invitrogen). Mastercycler® realplex (Eppendorf) was used to monitor DNA fluorescence. Compound activity was expressed as IC50 (µM). The drug used for reference was Amphotericin B (AmB).

[3] = Cytotoxicity test on macrophages (resazurin); format: cell-based; conditions: mouse, RAW 264.7 macrophages, 48 h incubation
Protocol: as §2
(§3) RAW 264.7 macrophages were used for cytotoxicity testing. Cells were plated in 96-well microplates at a density of 2 × 10^4 cells per well. Twenty-four hours of incubation with 5% CO2 at 37 °C followed, and then the medium was removed and to each well, 100 μL of DMEM complete medium containing two-fold serial dilutions of the compounds were added. This was followed by 48 h of incubation with 5% CO2 at 37 °C, after which 10 μL of resazurin (450 μM) was added to each well, and further incubated with 5% CO2, in the dark for 4 h at 37 °C. Cell viability was then monitored as above. Compound cytotoxicity was expressed as CC50 (Cytotoxic Concentration 50%: concentration inhibiting the macrophages growth by 50%).

RAW 264.7 macrophages = assay: Cytotoxicity test on macrophages (resazurin); format: cell-based; conditions: as defined
Protocol: as §2, §3

[4] = tested on: Leishmania donovani LV9 axenic amastigotes; assay: In vitro anti-leishmanial testing on axenic amastigotes (resazurin); format: cell-based; conditions: against Leishmania axenic amastigotes (as worded)
Leishmania = tested on: Leishmania; design: method as in PMID 18353643; conditions: read-out: IC50 of reference drug miltefosine; cited from earlier work
[5] = Table 3, read-out: Leishmania donovani LV9 Intramacrophage Amastigotes IC50 ± SD
[6] = Table 2, 72 h incubation, read-out: Leishmania donovani LV9 axenic Amastigotes Forms IC50 ± SD
[7] = Table 2, read-out: Leishmania donovani Intramacrophage Amastigotes Forms IC50 ± SD
[8] = Table 2, read-out: Toxicity on RAW 264.7 Macrophages CC50 ± SD

SMILES	IC50 ([1]; Table 3, 72 h incubation, read-out: Leishmania donovani LV9 Axenic Amastigotes IC50 ± SD)	IC50 [2, 5]	IC50 [1, 6]	IC50 [2, 7]	melting point	SI = CC50/IC50 Intramacro. Amas. [2]	CC50 at 48 h ([3]; Table 3, read-out: Cytotoxicity on RAW 264.7 Macrophages CC50 ± SD)	CC50 at 48 h [3, 8]	selectivity index (SI, CC50 for macrophage/IC50 for promastigotes) (RAW 264.7 macrophages)	selectivity index (SI) [4]	IC50 (Leishmania)
O=C(NN=Cc1ccc(Br)s1)c1cccs1 [Compound 2, N’-[(5-Bromo-2-thiophenyl)methylene]thiophene-2-carbohydrazide]	–	< 5 µM	1.09 ± 0.12 µM	2.18 ± 0.01 µM	–	2.2	–	4.87 ± 0.39 µM	≥ 2	2	–
O=C(NN=Cc1ccc(Br)s1)c1ccco1 [Compound 3, N’-[(5-Bromo-2-thiophenyl)methylene]furan-2-carbohydrazide]	–	–	> 100 µM	> 100 µM	201 to 202 °C	–	–	> 100 µM	–	–	–
O=C(NN=Cc1nc2ccccc2s1)c1cccs1 [Compound 4, N’-[(2-Benzothiazolyl)methylene]thiophene-2-carbohydrazide]	–	–	12.5 ± 0.61 µM	11.2 ± 0.62 µM	231 to 234 °C	1.4	–	16.3 ± 1.42 µM	–	–	–
COCc1nc(-c2ccc3c(c2)OCO3)no1 [Compound 8]	–	–	59.9 ± 6.45 µM	51.3 ± 4.35 µM	56 to 57 °C	>1.9	–	> 100 µM	–	–	–
COC(=O)c1c(C(=O)OC)c2ccccn2c1-c1nc2cc([N+](=O)[O-])ccc2[nH]1 [Compound 11, Dimethyl 3-(5-nitro-1H-benzo[d]imidazol-2-yl)indolizine-1,2-dicarboxylate]	–	–	–	–	234 °C	–	–	–	–	–	–
COC(=O)c1cc(-c2nc3cc([N+](=O)[O-])ccc3[nH]2)n2ccc3ccccc3c12 [Compound 13, Methyl 3-(5-nitro-1H-benzo[d]imidazol-2-yl)pyrrolo[2,1-a]isoquinoline-1-carboxylate]	–	–	–	–	280 °C	–	–	–	–	–	–
CCCCCCCCCCCCCCCCOP(=O)([O-])OCC[N+](C)(C)C [miltefosine]	–	–	–	–	–	–	–	–	–	–	0.31 µM

More lines, main results first:

IC50 ([1]; Table 3, 72 h incubation, read-out: Leishmania donovani LV9 Axenic Amastigotes IC50 ± SD)	IC50 [2, 5]	IC50 [1, 6]	IC50 [2, 7]	melting point	SMILES	SI = CC50/IC50 Intramacro. Amas. [2]	CC50 at 48 h ([3]; Table 3, read-out: Cytotoxicity on RAW 264.7 Macrophages CC50 ± SD)	CC50 at 48 h [3, 8]	selectivity index (SI, CC50 for macrophage/IC50 for promastigotes) (RAW 264.7 macrophages)	selectivity index (SI) [4]	IC50 (Leishmania)
0.2 ± 0.08 µM	0.11 ± 0.09 µM	–	–	–	C[C@@H]1[C@H](O)[C@@H](C)/C=C/C=C/C=C/C=C/C=C/C=C/C=C/[C@H](O[C@@H]2O[C@H](C)[C@@H](O)[C@H](N)[C@@H]2O)C[C@@H]2O[C@](O)(C[C@@H](O)C[C@@H](O)[C@H](O)CC[C@@H](O)C[C@@H](O)CC(=O)O[C@H]1C)C[C@H](O)[C@H]2C(=O)O [AmB, Amphotericin B, reference compound]	48.7	5.36 ± 0.52 µM	–	–	–	–
–	–	11.9 ± 1.87 µM	6.25 ± 1.89 µM	121 to 124 °C	Cc1csc(C=NNC(=O)c2ccco2)n1 [Compound 1, N’-[(4-Methyl-2-thiazolyl)methylene]furan-2-carbohydrazide]	2.2	–	13.9 ± 2.11 µM	–	–	–
–	–	61.5 ± 5.99 µM	55.2 ± 4.77 µM	234 to 237 °C	O=C(NN=Cc1nc2ccccc2s1)c1ccncc1 [Compound 5, N’-[(2-Benzothiazolyl)methylene]pyridine-4-carbohydrazide]	>1.8	–	> 100 µM	–	–	–
–	–	51.2 ± 4.98 µM	47.2 ± 3.12 µM	182 to 184 °C	NC(=NO)c1cccc([N+](=O)[O-])c1 [Compound 7, 3-Nitrobenzamidoxime]	>2.1	–	> 100 µM	–	–	–
–	–	> 100 µM	> 100 µM	162 °C	COC(=O)c1c(C(=O)OC)c2c3ccccc3ccn2c1-c1nc2cc([N+](=O)[O-])ccc2[nH]1 [Compound 12, Dimethyl 3-(5-nitro-1H-benzo[d]imidazol-2-yl)pyrrolo[2,1-a]isoquinoline-1,2-dicarboxylate]	–	–	> 100 µM	–	–	–
